Data: PubChem BioAssay (NCI)
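Compound exposure: 48 hours, 5 concentrations, 96-well plates. GI50 marks 50% less growth. Definition used: TGI = concentration required for complete inhibition of growth.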

Tests used:
Experiment in all cases: NCI-60 cell line screen, 48 h
[1] = tested on: 786-0 renal
[2] = tested on: A498 renal
[3] = tested on: A549 NSCLC
[4] = tested on: ACHN renal
[5] = tested on: BT-549 breast
[6] = tested on: CAKI-1 renal
[7] = tested on: CCRF-CEM leukemia
[8] = tested on: COLO 205 colon
[9] = tested on: DU-145 prostate
[10] = tested on: HCC-2998 colon
[11] = tested on: HCT-116 colon
[12] = tested on: HCT-15 colon
[13] = tested on: HL-60(TB) leukemia
[14] = tested on: HOP-62 NSCLC
[15] = tested on: HOP-92 NSCLC
[16] = tested on: HS 578T breast
[17] = tested on: HT29 colon
[18] = tested on: IGROV1 ovarian
[19] = tested on: KM12 colon
[20] = tested on: LOX IMVI melanoma
[21] = tested on: M14 melanoma
[22] = tested on: MALME-3M melanoma
[23] = tested on: MCF7 breast
[24] = tested on: MDA-MB-231 breast
[25] = tested on: MDA-MB-435
[26] = tested on: MOLT-4 leukemia
[27] = tested on: NCI-H226 lung
[28] = tested on: NCI-H23 lung
[29] = tested on: NCI-H460 lung
[30] = tested on: NCI-H522 lung
[31] = tested on: NCI/ADR-RES ovarian
[32] = tested on: OVCAR-3 ovarian
[33] = tested on: OVCAR-4 ovarian
[34] = tested on: OVCAR-5 ovarian
[35] = tested on: OVCAR-8 ovarian
[36] = tested on: PC-3 prostate
[37] = tested on: RPMI-8226 leukemia
[38] = tested on: RXF 393 renal
[39] = tested on: SF-268 CNS
[40] = tested on: SF-295 CNS
[41] = tested on: SF-539 CNS
[42] = tested on: SK-MEL-2 melanoma
[43] = tested on: SK-MEL-28 melanoma
[44] = tested on: SK-MEL-5 melanoma
[45] = tested on: SK-OV-3 ovarian
[46] = tested on: SN12C renal
[47] = tested on: SNB-19 CNS
[48] = tested on: SNB-75 CNS
[49] = tested on: SR leukemia
[50] = tested on: SW-620 colon
[51] = tested on: T-47D breast
[52] = tested on: TK-10 renal
[53] = tested on: U251 CNS
[54] = tested on: UACC-257 melanoma
[55] = tested on: UACC-62 melanoma
[56] = tested on: UO-31 renal

SMILES: COc1ccc(Nc2ccnc(NCCCNc3ccnc4cc(Cl)ccc34)n2)cc1
- GI50 [1]: 1.49 µM
- TGI [1]: 2.93 µM
- GI50 [2]: 0.659 µM
- TGI [2]: 2.54 µM
- GI50 [3]: 1.55 µM
- TGI [3]: 3.66 µM
- GI50 [4]: 1.18 µM
- TGI [4]: 2.42 µM
- GI50 [5]: 1.65 µM
- TGI [5]: 3.94 µM
- GI50 [6]: 1.15 µM
- TGI [6]: 2.41 µM
- GI50 [7]: 0.34 µM
- TGI [7]: 1.8 µM
- GI50 [8]: 1.21 µM
- TGI [8]: 2.65 µM
- GI50 [9]: 2.6 µM
- TGI [9]: 10.7 µM
- GI50 [10]: 1.01 µM
- TGI [10]: 2.61 µM
- GI50 [11]: 0.374 µM
- TGI [11]: 1.54 µM
- GI50 [12]: 0.397 µM
- TGI [12]: 1.76 µM
- GI50 [13]: 1.59 µM
- TGI [13]: 4.1 µM
- GI50 [14]: 1.61 µM
- TGI [14]: 4.44 µM
- GI50 [15]: 0.632 µM
- TGI [15]: 2.65 µM
- GI50 [16]: 1.46 µM
- TGI [16]: 3.83 µM
- GI50 [17]: 0.393 µM
- TGI [17]: 2.2 µM
- GI50 [18]: 1.48 µM
- TGI [18]: 4.14 µM
- GI50 [19]: 1.67 µM
- TGI [19]: 3.73 µM
- GI50 [20]: 0.322 µM
- TGI [20]: 1.27 µM
- GI50 [21]: 0.196 µM
- TGI [21]: 0.461 µM
- GI50 [22]: 1.36 µM
- TGI [22]: 3.08 µM
- GI50 [23]: 0.599 µM
- TGI [23]: 2.42 µM
- GI50 [24]: 0.583 µM
- TGI [24]: 2.15 µM
- GI50 [25]: 0.243 µM
- TGI [25]: 0.705 µM
- GI50 [26]: 1.45 µM
- TGI [26]: 7.22 µM
- GI50 [27]: 1.92 µM
- TGI [27]: 4.55 µM
- GI50 [28]: 2.43 µM
- TGI [28]: 8.5 µM
- GI50 [29]: 1.27 µM
- TGI [29]: 2.85 µM
- GI50 [30]: 1.62 µM
- TGI [30]: 3.67 µM
- GI50 [31]: 2.78 µM
- TGI [31]: 10.4 µM
- GI50 [32]: 1.56 µM
- TGI [32]: 3.24 µM
- GI50 [33]: 1.35 µM
- TGI [33]: 6.22 µM
- GI50 [34]: 1.16 µM
- TGI [34]: 3.73 µM
- GI50 [35]: 1.5 µM
- TGI [35]: 5.16 µM
- GI50 [36]: 1.63 µM
- TGI [36]: 11.2 µM
- GI50 [37]: 0.891 µM
- TGI [37]: 3.23 µM
- GI50 [38]: 0.897 µM
- TGI [38]: 2.3 µM
- GI50 [39]: 1.52 µM
- TGI [39]: 3.77 µM
- GI50 [40]: 1.12 µM
- TGI [40]: 2.36 µM
- GI50 [41]: 0.169 µM
- TGI [41]: 0.352 µM
- GI50 [42]: 1.61 µM
- TGI [42]: 3.21 µM
- GI50 [43]: 0.434 µM
- TGI [43]: 1.66 µM
- GI50 [44]: 0.387 µM
- TGI [44]: 1.46 µM
- GI50 [45]: 1.68 µM
- TGI [45]: 3.18 µM
- GI50 [46]: 1.59 µM
- TGI [46]: 8.94 µM
- GI50 [47]: 2.61 µM
- TGI [47]: 10.1 µM
- GI50 [48]: 0.903 µM
- TGI [48]: 2.14 µM
- GI50 [49]: 0.254 µM
- TGI [49]: 0.912 µM
- GI50 [50]: 1.07 µM
- TGI [50]: 2.56 µM
- GI50 [51]: 1.55 µM
- TGI [51]: 3.71 µM
- GI50 [52]: 1.54 µM
- TGI [52]: 3.17 µM
- GI50 [53]: 0.59 µM
- TGI [53]: 1.89 µM
- GI50 [54]: 1.33 µM
- TGI [54]: 2.75 µM
- GI50 [55]: 1.4 µM
- TGI [55]: 2.96 µM
- GI50 [56]: 0.879 µM
- TGI [56]: 2.18 µM
